Consider 16 compounds from BindingDB's records for doi:10.3109/14756366.2012.740477 (Solapur University, 2013).

Sequence of Urease (P07374 whole entry): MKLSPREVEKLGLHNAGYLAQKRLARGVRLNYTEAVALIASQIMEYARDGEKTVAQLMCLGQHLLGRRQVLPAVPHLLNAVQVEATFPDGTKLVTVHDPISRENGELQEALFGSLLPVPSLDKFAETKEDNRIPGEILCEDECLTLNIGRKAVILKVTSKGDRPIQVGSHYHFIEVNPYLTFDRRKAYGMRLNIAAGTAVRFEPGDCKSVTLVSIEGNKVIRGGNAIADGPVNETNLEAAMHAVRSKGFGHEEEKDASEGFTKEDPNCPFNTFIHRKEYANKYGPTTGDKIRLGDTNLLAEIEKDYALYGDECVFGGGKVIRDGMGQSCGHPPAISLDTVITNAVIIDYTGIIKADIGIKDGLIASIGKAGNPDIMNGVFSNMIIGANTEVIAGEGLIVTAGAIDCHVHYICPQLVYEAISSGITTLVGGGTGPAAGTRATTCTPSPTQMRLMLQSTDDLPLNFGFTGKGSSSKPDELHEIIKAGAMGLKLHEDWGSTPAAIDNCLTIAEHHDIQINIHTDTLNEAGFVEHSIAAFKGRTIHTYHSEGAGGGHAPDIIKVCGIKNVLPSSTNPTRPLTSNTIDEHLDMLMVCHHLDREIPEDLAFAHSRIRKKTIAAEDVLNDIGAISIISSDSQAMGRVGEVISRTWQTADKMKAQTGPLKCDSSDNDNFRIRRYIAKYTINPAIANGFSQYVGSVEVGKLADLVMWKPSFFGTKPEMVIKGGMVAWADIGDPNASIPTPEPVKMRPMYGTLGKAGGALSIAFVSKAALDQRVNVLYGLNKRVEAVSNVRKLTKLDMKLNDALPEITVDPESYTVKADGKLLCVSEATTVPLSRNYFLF

The test concerns the target Urease (Canavalia ensiformis, UniProt P07374). Put plainly: Urease Inhibition Assay. The note with it: pH 6.8; 30 °C. The method, then: Mixture of 25 μL of urease enzyme (Jack bean) solution containing 1 unit of enzyme (1 unit = 0.02 mg of enzyme) was dissolved in phosphate buffer of pH 6.8, 55 μL of buffer containing 100 mM urea, and 5 μL of test compounds (0.5 mM concentration) was incubated at 30°C for 15 min in 96-well plates. Urease activity was determined by measuring ammonia production using the iodophenol method38. Briefly, 45 μL each of phenol reagent and 70 μL of alkali reagent were added to each well. The increase in absorbance at 630 nm was measured after 50 min, using a microplate reader (Molecular Device, CA, USA). All reactions were performed in triplicate in a final volume of 200 μL. The results (change in absorbance per min) were processed using Soft-Max Pro software (Molecular Device, CA, USA).
In general, IC50 refers to the point on the concentration scale where inhibition reaches its midpoint. As for `Cn1c2ccccc2c2cc(-c3cc(-c4cc(Cl)ccc4Cl)nc(N)n3)ccc21` [4-(2,5-Dichlorophenyl)-6-(9-methyl-9H-carbazol-3-yl)-pyrimidin-2-amine (5k)], the IC50 turned out to be 28.1 µM.

`Cn1c2ccccc2c2cc(-c3cc(-c4ccc(Cl)cc4Cl)nc(N)n3)ccc21` [4-(2,4-Dichlorophenyl)-6-(9-methyl-9H-carbazol-3-yl)-pyrimidin-2-amine (5i)] displayed an IC50 of 19.4 µM.

As to `Cn1c2ccccc2c2cc(-c3cc(-c4cccs4)nc(N)n3)ccc21` [4-(9-Methyl-9H-carbazol-3-yl)-6-(thiophen-2-yl)-pyrimidin-2-amine (5n)], the IC50 is more than 100 µM.

`Cn1c2ccccc2c2cc(-c3cc(-c4ccccc4)nc(N)n3)ccc21` [4-(9-Methyl-9H-carbazol-3-yl)-6-phenylpyrimidin-2-amine (5a)] showed an IC50 of more than 100 µM.

In the case of `Cn1c2ccccc2c2cc(-c3cc(-c4ccc(F)cc4F)nc(N)n3)ccc21` [4-(2,4-Difluorophenyl)-6-(9-methyl-9H-carbazol-3-yl)-pyrimidin-2-amine (5f)], the IC50 stood at 40.2 µM. In other words, the double-digit micromolar range.

In the case of `COc1ccc(-c2cc(-c3ccc4c(c3)c3ccccc3n4C)nc(N)n2)cc1` [4-(4-Methoxyphenyl)-6-(9-methyl-9H-carbazol-3-yl)-pyrimidin-2-amine (5b)], it took 95.4 µM to reach half-maximal inhibition (IC50).

On to `Cn1c2ccccc2c2cc(-c3cc(-c4ccc(Br)cc4)nc(N)n3)ccc21` [4-(4-Bromophenyl)-6-(9-methyl-9H-carbazol-3-yl)-pyrimidin-2-amine (5l)], for which 95.1 µM corresponded to half-maximal inhibition (IC50). This IC50 and that of the compound before are within 1.5-fold of each other.

In the case of `Cn1c2ccccc2c2cc(-c3cc(-c4ccc(Cl)cc4)nc(N)n3)ccc21` [4-(4-Chlorophenyl)-6-(9-methyl-9H-carbazol-3-yl)-pyrimidin-2-amine (5h)], the IC50 was more than 100 µM.

As to `COc1ccc(-c2cc(-c3ccc4c(c3)c3ccccc3n4C)nc(N)n2)cc1OC` [4-(3,4-Dimethoxyphenyl)-6-(9-methyl-9H-carbazol-3-yl)-pyrimidin-2-amine (5c)], the IC50 was 30.7 µM. This lies in the double-digit micromolar range.

`Cn1c2ccccc2c2cc(-c3cc(-c4ccccn4)nc(N)n3)ccc21` [4-(9-Methyl-9H-carbazol-3-yl)-6-(pyridin-2-yl)-pyrimidin-2-amine (5o)] displayed an IC50 of more than 100 µM.

As for `Cn1c2ccccc2c2cc(-c3cc(-c4ccc(Cl)c(Cl)c4)nc(N)n3)ccc21` [4-(3,4-Dichlorophenyl)-6-(9-methyl-9H-carbazol-3-yl)-pyrimidin-2-amine (5j)], the IC50 was determined as 23.2 µM.

Take `COc1cc(OC)c(-c2cc(-c3ccc4c(c3)c3ccccc3n4C)nc(N)n2)c(OC)c1` [4-(9-Methyl-9H-carbazol-3-yl)-6-(2,4,6-trimethoxyphenyl)-pyrimidin-2-amine (5d)]: the IC50 worked out at 73.7 µM.

`Cn1c2ccccc2c2cc(-c3cc(-c4cccc(N)c4)nc(N)n3)ccc21` [4-(3-Aminophenyl)-6-(9-methyl-9H-carbazol-3-yl)-pyrimidin-2-amine (5p)]: the IC50 was 83.7 µM. The IC50 values of the last two compounds are within 1.5-fold of each other.

Turning to `Cn1c2ccccc2c2cc(-c3cc(-c4ccc(F)c(F)c4)nc(N)n3)ccc21` [4-(3,4-Difluorophenyl)-6-(9-methyl-9H-carbazol-3-yl)-pyrimidin-2-amine (5g)], it took 45.2 µM to reach half-maximal inhibition (IC50).

Turning to `Cn1c2ccccc2c2cc(-c3cc(-c4ccc([N+](=O)[O-])cc4)nc(N)n3)ccc21` [4-(9-Methyl-9H-carbazol-3-yl)-6-(4-nitrophenyl)-pyrimidin-2-amine (5m)], it took 87.2 µM to reach half-maximal inhibition (IC50).

The compound `Cn1c2ccccc2c2cc(-c3cc(-c4ccc(F)cc4)nc(N)n3)ccc21` [4-(4-Fluorophenyl)-6-(9-methyl-9H-carbazol-3-yl)-pyrimidin-2-amine (5e)] had an IC50 of more than 100 µM.
